Test results as given in ChEMBL document CHEMBL1127121, “Benzofuran based angiotensin II antagonists related to GR117289: Part III; GR138950, a triflamide with high oral bioavailability” (Bioorg Med Chem Lett, 1993).

Tests used:
[1] = biological target: T1, Type-1 angiotensin II receptor (Oryctolagus cuniculus) (UniProt P34976); test: Affinity for Angiotensin II receptor, type 1 by measuring its ability to antagonise the contractile effect of AngII in rabbit isolated thoracic aorta; assay type: functional, tissue-based
T1 sequence (whole entry): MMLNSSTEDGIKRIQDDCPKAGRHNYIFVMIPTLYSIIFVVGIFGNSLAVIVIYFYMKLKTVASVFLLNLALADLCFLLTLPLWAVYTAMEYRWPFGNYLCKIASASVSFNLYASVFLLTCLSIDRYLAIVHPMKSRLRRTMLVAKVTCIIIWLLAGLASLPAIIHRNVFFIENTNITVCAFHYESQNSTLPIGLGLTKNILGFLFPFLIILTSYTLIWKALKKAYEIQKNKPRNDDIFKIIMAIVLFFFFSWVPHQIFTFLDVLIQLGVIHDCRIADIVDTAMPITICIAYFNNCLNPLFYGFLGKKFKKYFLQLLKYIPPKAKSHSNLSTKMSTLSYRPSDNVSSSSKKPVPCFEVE

[2] = The compound was evaluated for volume of distribution in rat; assay type: ADME, organism-based; conditions: in vivo
[3] = Bioavailability in rat; assay type: ADME, organism-based; conditions: in vivo
[4] = The compound was evaluated for plasma clearance in rat; assay type: ADME, organism-based; conditions: read-out: Clp
[5] = The compound was evaluated for plasma half life period in rat; assay type: ADME, organism-based

Row | SMILES | pKB [1] | Vd [2] | bioavailability [3] | clearance [4] | half-life [5]
1 | CCc1nc(C)c(C(N)=O)n1Cc1ccc2oc(-c3ccccc3NS(=O)(=O)C(F)(F)F)c(Br)c2c1 | 9 |  |  |  | 
2 | CCCCc1nc(Cl)c(C(=O)O)n1Cc1ccc2oc(-c3ccccc3-c3nn[nH]n3)c(Br)c2c1 [ZOLASARTAN] |  | 0.5 L/kg | 3% | 0.048 L/h/kg | 8 h
3 | CCc1nc(CC(C)C)c(C(=O)NC)n1Cc1ccc2oc(-c3ccccc3NS(=O)(=O)C(F)(F)F)c(Br)c2c1 | < 8 |  |  |  | 
4 | CCc1nc(C)c(C(=O)NCC(F)(F)F)n1Cc1ccc2oc(-c3ccccc3NS(=O)(=O)C(F)(F)F)c(Br)c2c1 | 9.2 |  |  |  | 
5 | CCc1nc(C)c(C(=O)NC)n1Cc1ccc2oc(-c3ccccc3NS(=O)(=O)C(F)(F)F)c(Br)c2c1 | 9 | 4.3 L/kg | 95% | 2.52 L/h/kg | 1.2 h
6 | CCNC(=O)c1c(C)nc(CC)n1Cc1ccc2oc(-c3ccccc3NS(=O)(=O)C(F)(F)F)c(Br)c2c1 | 9.5 |  |  |  | 
7 | CCc1nc(C2CC2)c(C(=O)NC)n1Cc1ccc2oc(-c3ccccc3NS(=O)(=O)C(F)(F)F)c(Br)c2c1 | 9.7 |  |  |  | 
8 | CCc1nc(C)c(C(=O)N(C)C)n1Cc1ccc2oc(-c3ccccc3NS(=O)(=O)C(F)(F)F)c(Br)c2c1 | 9.1 |  |  |  | 
9 | CCc1nc(C2CC2)c(C(N)=O)n1Cc1ccc2oc(-c3ccccc3NS(=O)(=O)C(F)(F)F)c(Br)c2c1 [SAPRISARTAN] | 9 | 2.4 L/kg | 79% | 0.534 L/h/kg | 3.2 h
10 | CCc1nc(C(C)C)c(C(=O)NC)n1Cc1ccc2oc(-c3ccccc3NS(=O)(=O)C(F)(F)F)c(Br)c2c1 | 8.1 |  |  |  | 
11 | CCc1nc(CC)n(Cc2ccc3oc(-c4ccccc4NS(=O)(=O)C(F)(F)F)c(Br)c3c2)c1C(=O)NC | 9 |  |  |  | 
